Reference: patent US9403811B2, “Crystalline forms of azilsartan medoxomil potassium and preparation and uses thereof” (SUNSHINE LAKE PHARMA CO., LTD., priority 2012, dated 2016)

Key:
[1] = Solubility test; format: physicochemical; settings: for Solubility: THF (volume of solvent in which the solid dissolved): 0.50 g solid added to THF at room temperature; for Solubility: THF (volume of solvent in which the solid dissolved) / Solubility: Acetone (volume of solvent in which the solid dissolved) / Solubility: Ethanol (volume of solvent in which the solid dissolved) / Solubility: Ethyl acetate (volume of solvent in which the solid dissolved) / Solubility: Methanol (volume of solvent in which the solid dissolved): shaking 30 seconds every 5 minutes, observed with eyes; for Solubility: Acetone (volume of solvent in which the solid dissolved): 0.50 g solid added to acetone at room temperature; for Solubility: Ethanol (volume of solvent in which the solid dissolved): 0.50 g solid added to ethanol at room temperature; for Solubility: Ethyl acetate (volume of solvent in which the solid dissolved): 0.50 g solid added to ethyl acetate at room temperature; for Solubility: Methanol (volume of solvent in which the solid dissolved): 0.50 g solid added to methanol at room temperature; for Solubility: Result: 0.50 g solid in the listed solvent volumes, room temperature, dissolved = no solid detected by human eyes
Description: The crystalline form C, D, F, H, J and L of azilsartan medoxomil potassium (0.50 g) was added to the solvent at room temperature. […] The solid was deemed as dissolved when no solid was detected in the mixture by human eyes.
The solubility data of crystalline forms C, D, F, H, J and L of azilsartan medoxomil potassium are as shown below.

[2] = Stability test; format: physicochemical
Description: The stability test of the crystalline form C was conducted under the following conditions:
Storage condition 1: stored under conditions of 40° C./RH75% in a sealed state for 3 and 6 months. […] During the whole test period, no change in total amount of impurities was recognized as compared with that before the beginning of the test.
Storage condition 2: stored under conditions of 40° C./RH75% in an unsealed state for 1 and 3 months.

Compound | Solubility: THF (volume of solvent in which the solid dissolved) [1] | Solubility: Acetone (volume of solvent in which the solid dissolved) [1] | Solubility: Ethanol (volume of solvent in which the solid dissolved) [1] | Solubility: Ethyl acetate (volume of solvent in which the solid dissolved) [1] | Solubility: Methanol (volume of solvent in which the solid dissolved) [1] | Solubility: Result [1] | conversion of the crystalline form into other polymorphs ([2]; storage condition 1: 40° C./RH75%, sealed state, after six months) | change in total amount of impurities compared with before the beginning of the test ([2]; storage condition 1: 40° C./RH75%, sealed state, whole test period (3 and 6 months)) | total amount of impurities compared with before the beginning of the test ([2]; storage condition 2: 40° C./RH75%, unsealed state, 1 and 3 months) | conversion of the crystalline form into other polymorphs ([2]; storage condition 2: 40° C./RH75%, unsealed state, after three months)
CCOc1nc2cccc(C(=O)OCc3oc(=O)oc3C)c2n1Cc1ccc(-c2ccccc2-c2noc(=O)[n-]2)cc1.[K+] [Form C, azilsartan medoxomil potassium] | 13 mL | 8 mL | 6 mL | 10 mL | 5 mL | dissolved | could not be confirmed | no change | increased | could not be confirmed
CCOc1nc2cccc(C(=O)OCc3oc(=O)oc3C)c2n1Cc1ccc(-c2ccccc2-c2noc(=O)[n-]2)cc1.[K+] [Form D, azilsartan medoxomil potassium] | 16.5 ml^ | 9 mL | 5 mL | 12 mL | 4 mL | dissolved |  |  |  | 
CCOc1nc2cccc(C(=O)OCc3oc(=O)oc3C)c2n1Cc1ccc(-c2ccccc2-c2noc(=O)[n-]2)cc1.[K+] [Form F, azilsartan medoxomil potassium] | 15 mL | 12 mL | 6 mL | 16 mL | 4.5 ml^ | dissolved |  |  |  | 
CCOc1nc2cccc(C(=O)OCc3oc(=O)oc3C)c2n1Cc1ccc(-c2ccccc2-c2noc(=O)[n-]2)cc1.[K+] [Form H, azilsartan medoxomil potassium] | 14 mL | 10 mL | 8 mL | 13 mL | 6 mL | dissolved |  |  |  | 
CCOc1nc2cccc(C(=O)OCc3oc(=O)oc3C)c2n1Cc1ccc(-c2ccccc2-c2noc(=O)[n-]2)cc1.[K+] [Form J, azilsartan medoxomil potassium] | 12 mL | 8 mL | 5.5 ml^ | 11 mL | 4 mL | dissolved |  |  |  | 
CCOc1nc2cccc(C(=O)OCc3oc(=O)oc3C)c2n1Cc1ccc(-c2ccccc2-c2noc(=O)[n-]2)cc1.[K+] [Form L, azilsartan medoxomil potassium] | 17 mL | 11 mL | 6 mL | 14 mL | 5 mL | dissolved |  |  |  | 
